Experimental data from US11350582B2, “Plant varieties by application of endocides” (Stephen F. Austin State University, priority 2015, dated 2022).

tested on: Salvinia molesta; experiment: Greenhouse spray test on giant salvinia, living biomass; assay type: in vivo; details: total concentration 0.5%; 10 mL spray on three type III plants per container; day nine
Procedure: General Experimental Procedure: Observations of giant salvinia growth in a greenhouse were performed under 28 different treatment conditions and control conditions with NANOPURE™ water or 0.5% DYNE-AMIC® (methyl esters of C16-C18 fatty acids, polyalkyleneoxide modified polydimethylsiloxane, and alkylphenol ethoxylate 99%, (Helena, Collierville, Tenn., United States)) (v:v).
Materials—4-hydroxybenzoic acid (>95%, HPLC analysis) and 3,4-dihydroxybenzoic acid (>95%) were isolated from S. molesta matter using the method as described in (Li, Wang et al. 2013). Ethylparaben (>99%) was purchased from a commercial source. Each of 4-hydroxybenzoic acid, 3,4-dihydroxybenzoic acid, and ethylparaben were prepared as 50 mL experimental solutions with NANOPURE™ water at the concentration of 0.5, 1.0, 1.5, and 2.0%, respectively. 0.5, 1.0, 1.5, and 2.0% 4-hydroxybenzoic acid, 3,4-dihydroxybenzoic acid, and ethylparaben with 0.5% surfactant DYNE-AMIC® was also prepared as 50 mL experimental solutions with NANOPURE™ water. Mixtures of 4-hydroxybenzoic acid with 3,4-dihydroxybenzoic acid (2:1, w:w) were prepared as 50 mL experimental solutions with NANOPURE™ water at the total concentration of 0.5, 1.0, and 1.5%, respectively. 3,4-dihydroxybenzoic acid was mixed with ethylparaben (2:1, w:w) and prepared as 50 mL experimental solution with NANOPURE™ water at the total concentration of 0.5, 1.0, and 1.5%, respectively.
Bioassay—For each treatment, a total of nine healthy and untreated living plants of S. molesta (type III, the biomass of three plants weighs approximately 10 g) were cultured in tap water in three plastic containers severing as three replications (14×15 cm, 0.68 L) with three plants each in a greenhouse (30° C. during the day time and 20° C. at night). The three plants in each of the three containers per treatment were sprayed with 10 mL NANOPURE™ water, 0.5% DYNE-AMIC®, or the experimental solution. Plant growth and survival status were documented and photographed in each treatment on day nine after the treatment. Pairwise comparisons for all treatments (including Control) in living biomass were made using Tukey test at alpha=0.05, which was done using SAS (SAS 9.4).

Structure (SMILES) | Living Biomass (mean ± s.d.) [g]
CCOC(=O)c1ccc(O)cc1 [Ethylparaben, reference compound] | 18.6

same assay, conditions: total concentration 1.0%; 10 mL spray on three type III plants per container; day nine

Structure (SMILES) | Living Biomass (mean ± s.d.) [g]
CCOC(=O)c1ccc(O)cc1 [Ethylparaben, reference compound] | 18.7

same assay, conditions: total concentration 1.5%; 10 mL spray on three type III plants per container; day nine

Structure (SMILES) | Living Biomass (mean ± s.d.) [g]
CCOC(=O)c1ccc(O)cc1 [Ethylparaben, reference compound] | 12.9

same assay, conditions: total concentration 2.0%; 10 mL spray on three type III plants per container; day nine

Structure (SMILES) | Living Biomass (mean ± s.d.) [g]
CCOC(=O)c1ccc(O)cc1 [Ethylparaben, reference compound] | 13.5

tested on: S. molesta; experiment: Phytotoxic analysis by pipet application on upper or lower leaf surface; assay type: in vivo, Salvinia molesta; details: 1% solution; 72 hrs
Procedure: General Experimental Procedure: 4-Hydroxybenzoic and 3,4-dihydroxybenzoic acids and 14 of their analogs were purchased commercially. Each of 16 compounds were prepared as 5 mL experimental solutions with NANOPURE™ water at 1% concentration. A total of 102 healthy and untreated living type III plants of S. molesta (approximately 10 g in fresh weight each) were cultured and tested in 17 plastic containers (23×23 cm, 2.37 L) with six plants in each container in a greenhouse (30° C. during the day time and 20° C. at night). The first container served as the controls without any treatment, the plants in each of the other 16 containers were treated by one of the 16 testing compounds, respectively. The plants in each container were randomly classified into two groups evenly. For each plant in the first group, 10 μL of 1% experimental solution was applied by pipet on the upper surface of each blade of the six pairs of large floating leaves close to the terminal bud. For each plant in the second group, 10 μL of 1% experimental solution was applied by pipet on the lower surface of each blade of the six pairs of large floating leaves close to the terminal bud. The leaf surfaces were examined for damage and analyzed 72 hrs after the treatments.

Structure (SMILES) | activity on upper or lower leaf surface applications
O=C(O)c1c(O)cc(O)cc1O [2,4,6-Trihydroxybenzoic acid] | did not show any activities
O=C(O)c1cc(O)c(O)c(O)c1 [3,4,5-Trihydroxybenzoic acid] | did not show any activities
O=C(O)c1cc(O)cc(O)c1 [3,5-Dihydroxybenzoic acid] | did not show any activities
O=C(O)c1cccnc1 [Nicotinic acid] | did not show any activities

same assay, conditions: Salvinia molesta, topical, 72 h, 10 μL of 1% solution per blade, lower surface, read-out: Inhibition (%) Lower leaf Application

Structure (SMILES) | pest or weed control at 1 % [%]
O=C(O)c1ccc(O)c(O)c1O [2,3,4-Trihydroxybenzoic acid] | 11.1
O=C(O)c1cccc(O)c1O [2,3-Dihydroxybenzoic acid] | 100
O=C(O)c1c(O)cc(O)cc1O [2,4,6-Trihydroxybenzoic acid] | 11.1
O=C(O)c1ccc(O)cc1O [2,4-Dihydroxybenzoic acid] | 72.2
O=C(O)c1cc(O)ccc1O [2,5-Dihydroxybenzoic acid] | 11.1
O=C(O)c1c(O)cccc1O [2,6-Dihydroxybenzoic acid] | 25
O=C(O)c1ccccc1O [2-Hydroxybenzoic acid] | 100
O=C(O)c1cc(O)c(O)c(O)c1 [3,4,5-Trihydroxybenzoic acid] | 0
O=C(O)c1cc(O)cc(O)c1 [3,5-Dihydroxybenzoic acid] | 0
O=C(O)c1cccc(O)c1 [3-Hydroxybenzoic acid] | 66.7
O=C(O)c1ccncc1 [Isonicotinic acid] | 33.3
O=C(O)c1cccnc1 [Nicotinic acid] | 0

same assay, conditions: Salvinia molesta, topical, 72 h, 10 μL of 1% solution per blade, upper surface, read-out: Inhibition (%) Upper leaf Application

Structure (SMILES) | pest or weed control at 1 % [%]
O=C(O)c1ccc(O)c(O)c1O [2,3,4-Trihydroxybenzoic acid] | 44.5
O=C(O)c1cccc(O)c1O [2,3-Dihydroxybenzoic acid] | > 85
O=C(O)c1c(O)cc(O)cc1O [2,4,6-Trihydroxybenzoic acid] | 0
O=C(O)c1ccc(O)cc1O [2,4-Dihydroxybenzoic acid] | > 85
O=C(O)c1cc(O)ccc1O [2,5-Dihydroxybenzoic acid] | 52.8
O=C(O)c1c(O)cccc1O [2,6-Dihydroxybenzoic acid] | 44.4
O=C(O)c1ccccc1O [2-Hydroxybenzoic acid] | > 85
O=C(O)c1cc(O)c(O)c(O)c1 [3,4,5-Trihydroxybenzoic acid] | 0
O=C(O)c1cc(O)cc(O)c1 [3,5-Dihydroxybenzoic acid] | 0
O=C(O)c1cccc(O)c1 [3-Hydroxybenzoic acid] | 36.1
O=C(O)c1ccncc1 [Isonicotinic acid] | 44.5
O=C(O)c1cccnc1 [Nicotinic acid] | 0

same assay, conditions: Salvinia molesta, topical, 72 h, read-out: Inhibition (%) Lower leaf Application, 10 μL of 1% solution per blade, lower surface

Structure (SMILES) | pest or weed control at 1 % [%]
O=C(O)c1ccccc1 [Benzoic acid] | 100
O=C(O)COc1ccccc1 [Phenoxyacetic acid] | 16.7

same assay, conditions: Salvinia molesta, topical, 72 h, read-out: Inhibition (%) Upper leaf Application, 10 μL of 1% solution per blade, upper surface

Structure (SMILES) | pest or weed control at 1 % [%]
O=C(O)c1ccccc1 [Benzoic acid] | > 85
O=C(O)COc1ccccc1 [Phenoxyacetic acid] | 77.8
